How the values were obtained:
[1] = molecular target: Transient receptor potential cation channel subfamily V member 4 (Homo sapiens, UniProt Q9HBA0); test: Antagonist activity at human TRPV4 expressed in HEK293 cells assessed as inhibition of GSK634775A-induced calcium influx preincubated for 10 mins followed by GSK634775A addition by […] dye based FLIPR assay; format: cell-based
[2] = molecular target: T1, Transient receptor potential cation channel subfamily V member 4 (Rattus norvegicus, UniProt Q9ERZ8); test: Antagonist activity at rat TRPV4 expressed in HEK293 cells assessed as inhibition of GSK634775A-induced calcium influx preincubated for 10 mins followed by GSK634775A addition by […] dye based FLIPR assay; format: cell-based
T1 sequence (Q9ERZ8 whole entry): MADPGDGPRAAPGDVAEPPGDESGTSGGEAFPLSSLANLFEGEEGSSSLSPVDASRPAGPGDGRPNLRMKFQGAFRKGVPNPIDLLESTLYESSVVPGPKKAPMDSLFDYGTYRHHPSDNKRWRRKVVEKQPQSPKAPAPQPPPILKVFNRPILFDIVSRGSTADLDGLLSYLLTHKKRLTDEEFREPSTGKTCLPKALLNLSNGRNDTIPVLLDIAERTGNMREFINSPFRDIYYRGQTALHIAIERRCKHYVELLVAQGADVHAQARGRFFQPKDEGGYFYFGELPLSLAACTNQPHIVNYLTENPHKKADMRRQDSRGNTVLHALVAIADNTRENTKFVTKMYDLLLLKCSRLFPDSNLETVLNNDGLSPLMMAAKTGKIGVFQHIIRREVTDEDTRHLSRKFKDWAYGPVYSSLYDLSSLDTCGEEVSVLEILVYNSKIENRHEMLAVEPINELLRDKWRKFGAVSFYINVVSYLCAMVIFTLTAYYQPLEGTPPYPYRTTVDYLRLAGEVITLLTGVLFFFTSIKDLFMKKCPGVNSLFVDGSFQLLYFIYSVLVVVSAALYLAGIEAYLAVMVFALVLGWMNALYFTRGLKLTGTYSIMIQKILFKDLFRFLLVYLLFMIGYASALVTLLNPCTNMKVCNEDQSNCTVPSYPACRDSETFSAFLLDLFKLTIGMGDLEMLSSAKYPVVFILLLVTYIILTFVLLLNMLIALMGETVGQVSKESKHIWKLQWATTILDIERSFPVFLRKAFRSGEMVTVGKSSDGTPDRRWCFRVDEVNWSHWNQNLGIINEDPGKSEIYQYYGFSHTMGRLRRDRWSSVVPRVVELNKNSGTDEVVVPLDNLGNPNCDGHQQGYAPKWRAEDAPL

[3] = molecular target: Nuclear receptor subfamily 1 group I member 2 (Homo sapiens, UniProt O75469); test: Activation of PXR (unknown origin); format: ADME
Chain of Nuclear receptor subfamily 1 group I member 2 (O75469 whole entry): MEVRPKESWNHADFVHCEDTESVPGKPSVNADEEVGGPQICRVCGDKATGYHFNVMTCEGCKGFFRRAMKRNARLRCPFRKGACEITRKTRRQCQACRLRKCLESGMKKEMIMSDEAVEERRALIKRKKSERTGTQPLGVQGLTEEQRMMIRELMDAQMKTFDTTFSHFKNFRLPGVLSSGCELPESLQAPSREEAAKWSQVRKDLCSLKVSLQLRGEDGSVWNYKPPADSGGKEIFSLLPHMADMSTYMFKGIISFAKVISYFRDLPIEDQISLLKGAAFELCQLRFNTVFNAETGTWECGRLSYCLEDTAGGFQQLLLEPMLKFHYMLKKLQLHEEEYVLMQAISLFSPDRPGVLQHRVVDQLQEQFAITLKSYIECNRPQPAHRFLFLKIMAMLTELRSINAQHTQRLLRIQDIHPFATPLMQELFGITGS

[4] = molecular target: T2, Voltage-dependent L-type calcium channel subunit alpha-1C (Cavia porcellus, UniProt O35505); test: Inhibition of Cav1.2 in guinea pig ventricular myocytes assessed as decrease in current amplitude at 0.1 Hz by patch clamp method; format: cell-based
T2 sequence (O35505 whole entry): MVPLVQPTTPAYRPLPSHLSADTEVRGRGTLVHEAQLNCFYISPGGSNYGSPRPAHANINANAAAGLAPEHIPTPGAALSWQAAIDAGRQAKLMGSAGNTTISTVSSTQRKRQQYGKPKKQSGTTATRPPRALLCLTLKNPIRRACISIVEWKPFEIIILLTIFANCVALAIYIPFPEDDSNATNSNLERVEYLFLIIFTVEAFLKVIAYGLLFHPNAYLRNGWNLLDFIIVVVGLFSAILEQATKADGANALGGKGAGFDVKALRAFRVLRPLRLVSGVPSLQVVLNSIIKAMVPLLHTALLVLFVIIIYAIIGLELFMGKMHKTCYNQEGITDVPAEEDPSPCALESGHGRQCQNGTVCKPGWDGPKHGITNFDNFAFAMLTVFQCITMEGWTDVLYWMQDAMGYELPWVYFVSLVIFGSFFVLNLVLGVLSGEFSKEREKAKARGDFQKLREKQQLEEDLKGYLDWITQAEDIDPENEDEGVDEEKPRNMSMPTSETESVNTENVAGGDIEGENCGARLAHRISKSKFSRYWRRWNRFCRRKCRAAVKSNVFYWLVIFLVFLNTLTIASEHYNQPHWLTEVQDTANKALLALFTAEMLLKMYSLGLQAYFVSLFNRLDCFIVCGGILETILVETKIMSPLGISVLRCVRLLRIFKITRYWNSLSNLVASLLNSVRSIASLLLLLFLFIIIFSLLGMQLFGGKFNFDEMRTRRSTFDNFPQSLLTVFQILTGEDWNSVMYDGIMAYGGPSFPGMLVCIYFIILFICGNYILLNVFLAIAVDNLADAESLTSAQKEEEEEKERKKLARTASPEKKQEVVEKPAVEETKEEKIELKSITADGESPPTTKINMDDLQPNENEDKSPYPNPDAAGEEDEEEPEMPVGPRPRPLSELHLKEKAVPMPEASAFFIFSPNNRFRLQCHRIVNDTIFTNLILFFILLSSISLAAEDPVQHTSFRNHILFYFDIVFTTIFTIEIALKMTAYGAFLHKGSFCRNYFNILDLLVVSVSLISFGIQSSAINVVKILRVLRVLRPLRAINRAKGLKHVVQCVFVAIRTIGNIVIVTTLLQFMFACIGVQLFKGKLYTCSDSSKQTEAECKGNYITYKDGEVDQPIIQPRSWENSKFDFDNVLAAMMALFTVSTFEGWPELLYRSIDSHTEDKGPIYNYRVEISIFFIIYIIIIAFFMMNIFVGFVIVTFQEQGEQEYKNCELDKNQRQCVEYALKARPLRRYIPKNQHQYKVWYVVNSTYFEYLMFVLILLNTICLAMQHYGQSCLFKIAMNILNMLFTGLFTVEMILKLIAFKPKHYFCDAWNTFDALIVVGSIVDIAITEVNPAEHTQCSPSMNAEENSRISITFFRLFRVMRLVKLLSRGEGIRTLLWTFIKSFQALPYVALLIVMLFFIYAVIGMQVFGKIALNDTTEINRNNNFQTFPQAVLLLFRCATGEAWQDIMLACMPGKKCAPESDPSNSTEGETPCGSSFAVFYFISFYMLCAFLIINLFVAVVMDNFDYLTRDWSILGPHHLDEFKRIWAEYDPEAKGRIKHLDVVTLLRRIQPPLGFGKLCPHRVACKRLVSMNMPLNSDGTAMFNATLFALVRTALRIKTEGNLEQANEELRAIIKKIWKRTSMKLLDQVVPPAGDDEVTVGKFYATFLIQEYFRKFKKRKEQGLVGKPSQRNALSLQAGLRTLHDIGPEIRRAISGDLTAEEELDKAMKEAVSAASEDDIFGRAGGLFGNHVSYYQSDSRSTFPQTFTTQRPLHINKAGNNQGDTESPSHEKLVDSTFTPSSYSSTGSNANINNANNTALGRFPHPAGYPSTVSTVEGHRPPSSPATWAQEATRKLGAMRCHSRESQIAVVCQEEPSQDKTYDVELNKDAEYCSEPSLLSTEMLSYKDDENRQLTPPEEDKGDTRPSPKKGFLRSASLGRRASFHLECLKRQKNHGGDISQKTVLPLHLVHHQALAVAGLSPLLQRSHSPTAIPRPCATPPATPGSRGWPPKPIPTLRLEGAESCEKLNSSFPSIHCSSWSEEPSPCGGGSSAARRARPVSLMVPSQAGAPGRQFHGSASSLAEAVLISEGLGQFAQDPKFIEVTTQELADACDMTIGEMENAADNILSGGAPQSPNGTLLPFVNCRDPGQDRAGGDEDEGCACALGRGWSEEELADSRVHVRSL

[5] = molecular target: T2, Voltage-dependent L-type calcium channel subunit alpha-1C; test: Inhibition of Cav1.2 in guinea pig ventricular myocytes assessed as decrease in current amplitude at 2 Hz by patch clamp method; format: cell-based
[6] = molecular target: T1, Transient receptor potential cation channel subfamily V member 4; test: Antagonist activity at rat TRPV4 expressed in HEK293 cells assessed as inhibition of 4alpha-PDD-induced intracellular calcium after 10 mins in presence of 45Ca2+ by microbeta liquid scintillation counting method; format: cell-based
[7] = molecular target: Transient receptor potential cation channel subfamily V member 4 (Mus musculus, UniProt Q9EPK8); test: Antagonist activity at mouse TRPV4 expressed in HEK293 cells assessed as inhibition of 4alpha-PDD-induced intracellular calcium after 10 mins in presence of 45Ca2+ by microbeta liquid scintillation counting method; format: cell-based

Chain of Transient receptor potential cation channel subfamily V member 4 (Homo sapiens, UniProt Q9HBA0) (Q9HBA0 whole entry): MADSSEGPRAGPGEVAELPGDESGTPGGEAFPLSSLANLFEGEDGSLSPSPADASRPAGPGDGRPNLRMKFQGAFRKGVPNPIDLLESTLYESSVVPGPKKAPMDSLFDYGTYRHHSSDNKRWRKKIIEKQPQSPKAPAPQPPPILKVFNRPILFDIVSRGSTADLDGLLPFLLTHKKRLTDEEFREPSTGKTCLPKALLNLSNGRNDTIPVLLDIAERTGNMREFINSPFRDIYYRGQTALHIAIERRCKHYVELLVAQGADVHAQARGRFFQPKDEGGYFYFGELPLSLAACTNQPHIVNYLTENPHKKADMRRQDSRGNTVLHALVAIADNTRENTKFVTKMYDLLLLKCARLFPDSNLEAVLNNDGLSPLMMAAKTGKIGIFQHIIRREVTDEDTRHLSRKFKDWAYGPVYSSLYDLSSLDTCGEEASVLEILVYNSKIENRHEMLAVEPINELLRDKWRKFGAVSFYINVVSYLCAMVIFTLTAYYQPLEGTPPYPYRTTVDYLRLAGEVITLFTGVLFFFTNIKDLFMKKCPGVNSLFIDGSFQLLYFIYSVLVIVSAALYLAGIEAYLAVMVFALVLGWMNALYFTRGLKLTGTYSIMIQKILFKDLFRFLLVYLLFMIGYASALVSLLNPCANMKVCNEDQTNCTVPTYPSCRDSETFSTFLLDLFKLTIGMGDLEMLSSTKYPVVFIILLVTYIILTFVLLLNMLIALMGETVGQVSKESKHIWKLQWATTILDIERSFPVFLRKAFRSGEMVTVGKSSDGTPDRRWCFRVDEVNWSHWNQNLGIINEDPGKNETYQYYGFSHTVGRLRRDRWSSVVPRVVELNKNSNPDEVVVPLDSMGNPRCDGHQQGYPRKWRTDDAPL

SMILES	IC50 [1] [µM]	IC50 [2] [µM]	other results
C[C@@H](NC(=O)c1c(CN2CCC(N3CCCCC3)CC2)c(-c2cccc(C(F)(F)F)c2)nc2ccccc12)c1ccccc1	2	0.4	–
C[C@H](NC(=O)c1c(CN2CCC(N3CCCCC3)CC2)c(-c2ccc(Cl)cc2)nc2ccccc12)c1ccccc1	0.32	0.016	–
C[C@H](NC(=O)c1c(CN2CCC(N3CCCCC3)CC2)c(-c2ccc(C(F)(F)F)cc2)nc2ccccc12)c1ccccc1	0.4	0.016	–
C[C@H](NC(=O)c1c(CN2CCC(C3CCCCC3)CC2)c(-c2cccc(C(F)(F)F)c2)nc2ccccc12)c1ccccc1	> 25	> 25	–
C[C@H](NC(=O)c1c(CN2CCC(N(C)C)CC2)c(-c2cccc(C(F)(F)F)c2)nc2ccccc12)c1ccccc1	2.51	0.32	–
Cc1cccc(-c2nc3ccccc3c(C(=O)N[C@@H](C)c3ccccc3)c2CN2CCC(N3CCCCC3)CC2)c1	0.5	0.013	–
CCOc1ccc2c(C(=O)N[C@H](c3ccccc3)C(F)(F)F)c(CN3CCC(N4CCCCC4)CC3)c(-c3cccc(C(F)(F)F)c3)nc2c1	0.01	0.0032	EC50 [3]: 1.3 µM; IC30 [4]: 10 µM; IC30 [5]: 12 µM
C[C@H](NC(=O)c1c(CN2CCC(N3CCCCC3)CC2)c(-c2cccc(Cl)c2)nc2ccccc12)c1ccccc1	0.2	0.008	–
COc1ccc2c(C(=O)N[C@H](c3ccccc3)C(F)(F)F)c(CN3CCC(N4CCCCC4)CC3)c(-c3cccc(C(F)(F)F)c3)nc2c1	0.05	0.004	–
Cc1ccc(-c2nc3ccccc3c(C(=O)N[C@@H](C)c3ccccc3)c2CN2CCC(N3CCCCC3)CC2)cc1	1.58	0.1	–
C[C@@H](NC(=O)c1c(CN2CCC(N3CCCCC3)CC2)c(-c2ccccc2)nc2ccccc12)c1ccccc1	2	0.63	–
O=C(N[C@@H](c1ccccc1)C(F)(F)F)c1c(CN2CCC(N3CCCCC3)CC2)c(-c2cccc(C(F)(F)F)c2)nc2ccccc12	0.1	0.008	–
O=C(N[C@H](c1ccccc1)C(F)(F)F)c1c(CN2CCC(N3CCCCC3)CC2)c(-c2cccc(C(F)(F)F)c2)nc2ccccc12	0.04	0.0025	–
O=C(N[C@H](c1ccccc1)C(F)(F)F)c1c(CN2CCC(N3CCCCC3)CC2)c(-c2cccc(C(F)(F)F)c2)nc2ccc(Br)cc12	0.06	0.0025	–
CC(C)NCCN(C(C)C)S(=O)(=O)c1ccc(Cl)cc1Cl	–	–	IC50 [6]: 3.2 µM; IC50 [7]: 5.9 µM
C[C@H](NC(=O)c1c(CN2CCC(N3CCOCC3)CC2)c(-c2cccc(C(F)(F)F)c2)nc2ccccc12)c1ccccc1	0.05	0.004	–
